In PMC10819888, “Benzimidazole-Based Derivatives as Apoptotic Antiproliferative Agents: Design, Synthesis, Docking, and Mechanistic Studies” (Molecules, 2024):

Legend:
Test in all cases: NCI-60 one-dose assay
Assay type in all cases: cell-based
COLO 205 = conditions: Homo sapiens, COLO 205 (Colon Cancer), read-out: Cell Inhibition Percent
Protocol: (§1) The final compounds were submitted to the National Cancer Institute, Bethesda, USA, for screening in vitro for anti-cancer. […] compounds, 4a–j, 5, and 6, were selected according to the Development Therapeutic Program (DTP) protocol. The selected compounds were evaluated for their in vitro cytotoxic activity against a panel of sixty cancer cell lines (NCI-60 cell line panel) derived from six cell lines panel of leukemia, nine cell lines of lung cancer, six cell lines of CNS cancer, seven cell lines of colon cancer, eight cell lines of melanoma, six cell lines of ovarian cancer, eight cell lines of renal cancer, two cell lines of prostate cancer, and eight cell lines of breast cancer, representing the full nine human systems as leukemia, melanoma, and cancers of the lung, colon, brain, breast, ovary, kidney, and prostate.
(§2) The selected compounds 4a–j, 5, and 6 were tested at a single concentration of 10 µM. The screening results for the selected compounds are illustrated in Table 1.
(§3) The NCI anti-cancer screening methodology has been described in detail elsewhere (http://www.dtp.nci.nih.gov, accessed on 20 February 2021). Following the Drug Evaluation Branch protocol, National Cancer Institute, Bethesda, USA, a primary anti-cancer assay was performed on approximately 60 human tumor cell line panels derived from nine neoplastic diseases.

ACHN = conditions: Homo sapiens, ACHN (Renal Cancer), read-out: Cell Inhibition Percent
Protocol: as §1, §2, §3

TK-10 = conditions: Homo sapiens, TK-10 (Renal Cancer), read-out: Cell Inhibition Percent
Protocol: as §1, §2, §3

CAKI-1 = conditions: Homo sapiens, CAKI-1 (Renal Cancer), read-out: Cell Inhibition Percent
Protocol: as §1, §2, §3

SNB-19 = conditions: Homo sapiens, SNB-19 (CNS cancer), read-out: Cell Inhibition Percent
Protocol: as §1, §2, §3

T-47D = conditions: Homo sapiens, T47D, T-47D (Breast Cancer), read-out: Cell Inhibition Percent
Protocol: as §1, §2, §3

UACC-62 = conditions: Homo sapiens, UACC-62 (Melanoma), read-out: Cell Inhibition Percent
Protocol: as §1, §2, §3

MDA-MB-468 = conditions: Homo sapiens, MDA-MB-468 (Breast Cancer), read-out: Cell Inhibition Percent
Protocol: as §1, §2, §3

SN12C = conditions: Homo sapiens, SN12C (Renal Cancer), read-out: Cell Inhibition Percent
Protocol: as §1, §2, §3

SK-MEL-5 = conditions: Homo sapiens, SK-MEL-5 (Melanoma), read-out: Cell Inhibition Percent
Protocol: as §1, §2, §3

SNB-75 = conditions: Homo sapiens, SNB-75 (CNS cancer), read-out: Cell Inhibition Percent
Protocol: as §1, §2, §3

SK-OV-3 = conditions: Homo sapiens, SK-OV-3 (ovarian cancer), read-out: Cell Inhibition Percent
Protocol: as §1, §2, §3

HS 578T = conditions: Homo sapiens, HS 578T (Breast Cancer), read-out: Cell Inhibition Percent
Protocol: as §1, §2, §3

HCT-15 = conditions: Homo sapiens, HCT-15 (Colon Cancer), read-out: Cell Inhibition Percent
Protocol: as §1, §2, §3

A498 = conditions: Homo sapiens, A498 (Renal Cancer), read-out: Cell Inhibition Percent
Protocol: as §1, §2, §3

SF-295 = conditions: Homo sapiens, SF-295 (CNS cancer), read-out: Cell Inhibition Percent
Protocol: as §1, §2, §3

A549/ATCC = conditions: Homo sapiens, A549/ATCC (Non-Small Cell Lung Cancer), read-out: Cell Inhibition Percent
Protocol: as §1, §2, §3

BT-549 = conditions: Homo sapiens, BT-549 (Breast Cancer), read-out: Cell Inhibition Percent
Protocol: as §1, §2, §3

NCI-H23 = conditions: Homo sapiens, NCI-H23 (Non-Small Cell Lung Cancer), read-out: Cell Inhibition Percent
Protocol: as §1, §2, §3

OVCAR-3 = conditions: Homo sapiens, OVCAR-3 (ovarian cancer), read-out: Cell Inhibition Percent
Protocol: as §1, §2, §3

KM12 = conditions: Homo sapiens, KM12 (Colon Cancer), read-out: Cell Inhibition Percent
Protocol: as §1, §2, §3

HCC-2998 = conditions: Homo sapiens, HCC-2998 (Colon Cancer), read-out: Cell Inhibition Percent
Protocol: as §1, §2, §3

HT29 = conditions: Homo sapiens, HT-29, HT29 (Colon Cancer), read-out: Cell Inhibition Percent
Protocol: as §1, §2, §3

NCI-H322M = conditions: Homo sapiens, NCI-H322M (Non-Small Cell Lung Cancer), read-out: Cell Inhibition Percent
Protocol: as §1, §2, §3

OVCAR-4 = conditions: Homo sapiens, OVCAR-4 (ovarian cancer), read-out: Cell Inhibition Percent
Protocol: as §1, §2, §3

K-562 = conditions: Homo sapiens, K562, K-562 (Leukemia), read-out: Cell Inhibition Percent
Protocol: as §1, §2, §3

NCI-H226 = conditions: Homo sapiens, NCI-H226 (Non-Small Cell Lung Cancer), read-out: Cell Inhibition Percent
Protocol: as §1, §2, §3

LOX IMVI = conditions: Homo sapiens, LOX IMVI (Melanoma), read-out: Cell Inhibition Percent
Protocol: as §1, §2, §3

OVCAR-8 = conditions: Homo sapiens, OVCAR-8 (ovarian cancer), read-out: Cell Inhibition Percent
Protocol: as §1, §2, §3

UO-31 = conditions: Homo sapiens, UO-31 (Renal Cancer), read-out: Cell Inhibition Percent
Protocol: as §1, §2, §3

CCRF-CEM = conditions: Homo sapiens, CCRF-CEM (Leukemia), read-out: Cell Inhibition Percent
Protocol: as §1, §2, §3

O=C(N/N=C/c1ccc(O)cc1)c1ccc2[nH]c(-c3ccc(Cl)cc3)nc2c1 [Compound 4i, N′-(4-Hydroxybenzylidene)-2-(4-chlorophenyl)-1H-benzimidazole-5-carbohydrazide]
inhibition at 10 µM (COLO 205): 0.44% | inhibition at 10 µM (ACHN): 4.33% | inhibition at 10 µM (TK-10): 0% | inhibition at 10 µM (CAKI-1): 1.91% | inhibition at 10 µM (SNB-19): 0% | inhibition at 10 µM (T-47D): 24.2% | inhibition at 10 µM (UACC-62): 5.2% | inhibition at 10 µM (MDA-MB-468): 0% | inhibition at 10 µM (SN12C): 0% | inhibition at 10 µM (SK-MEL-5): 4.32% | inhibition at 10 µM (SNB-75): 0% | inhibition at 10 µM (SK-OV-3): 5.09% | inhibition at 10 µM (HS 578T): 5.94% | inhibition at 10 µM (HCT-15): 0% | inhibition at 10 µM (A498): 5.34% | inhibition at 10 µM (SF-295): 0% | inhibition at 10 µM (A549/ATCC): 0% | inhibition at 10 µM (BT-549): 0% | inhibition at 10 µM (NCI-H23): 4.44% | inhibition at 10 µM (OVCAR-3): 0% | inhibition at 10 µM (KM12): 2.85% | inhibition at 10 µM (HCC-2998): 0% | inhibition at 10 µM (HT29): 0% | inhibition at 10 µM (NCI-H322M): 0.47% | inhibition at 10 µM (OVCAR-4): 0% | inhibition at 10 µM (K-562): 0.25% | inhibition at 10 µM (NCI-H226): 20.6% | inhibition at 10 µM (LOX IMVI): 11.9% | inhibition at 10 µM (OVCAR-8): 0% | inhibition at 10 µM (UO-31): 15.9% | inhibition at 10 µM (CCRF-CEM): 13.6%
